# Read-outs that look alike come from different tables or passages of the source.
# Columns and labels:
# [1] = Oxygen-sparing action during physical work, general findings in the description; type: in vivo; details: result in words; for Oxygen demand after administration: even occasionally increased
# test subject [2] = test: Bicycle ergometer test at 100 W: antagonism between inactive (1st dosage) and active (2nd dosage) substances (Example 1b); type: in vivo, human; details: for Average heart rate after 1st dosage: 10-minute test at 100 W; for Average heart rate before: 10-minute control test at 100 W before the 1st dosage; for Change in the oxygen consumption after 2nd dosage: relative to after 1st dosage
# Procedure: (§1) 13 to Mar. 6, 1999, with a subject in good physical condition under standard conditions. The subject was required each morning in the fasting state to perform successively (without interruption) at mechanical power output of 100 W, 125 W and 150 W, each lasting 10 minutes (total test duration 30 minutes each time). […] The heat production induced by mechanical exertion was calculated from the changes in the heart rate. An alternative possibility is also to determine it on the basis of the increase in humidity caused by the perspiration (the tests are carried out in a closed room) or reduction in weight (1 g of water=2.26 kJ). […] The values indicated in table la for the “average heart rate” are in each case averages over the 30-minute duration of the test; relative values for the oxygen consumption were established on the basis of the heart rates in a known manner, and the relative values indicated in Table 1a are based on the oxygen consumption on the first day (=100%); the values listed in the column “heat production” in Table 1a give the percentage deviation of the heat production, established on the basis of the perspiration, from the average from all the tests.
# (§2) It is known that the oxygen uptake can be determined by measuring the heart rate as a function of the mechanical exertion. This ergometric method is based on establishing the oxygen transport volume through the action of the heart. Since the stroke volume is essentially constant irrespective of the intensity of the mechanical work, and the increased oxygen demand caused by the increase in work results in an increase in the heart rate, the quantity of the transported oxygen can be established by determining the additional heartbeats caused by the work. A 3-stage ergometer as recommended by the World Health Organization (WHO) is used in physiology research institutes and fitness clubs around the world.
# test subject [3] = type: in vivo, human; details: Homo sapiens, 10 min
# test subject [4] = test: Bicycle ergometer test at 100 W: active ingredient, sucrose, further active ingredient, amino acid/vitamin product (Example 1c); type: in vivo, human; details: for Average heart rate after 4th dos.: 4th dosage 100 mg of Na glutamate, 0.3 mg of folic acid, 5 μg of cyanocobalamin in 10 mg of gelatin; for Average heart rate after 2nd dos.: then 2nd dosage 2.5 g of sucrose
# Procedure: as §1, §2
# test subject [5] = test: as above; type: in vivo, human; details: for Change in oxygen consumption after 2nd dos.: 2nd dosage 2.5 g of sucrose; for Change in oxygen consumption after 2nd dos. / Change in oxygen consumption after 4th dos. / Change in oxygen consumption after 3rd dos.: relative to preceding dosage; for Change in oxygen consumption after 4th dos.: 4th dosage Na glutamate/folic acid/cyanocobalamin/gelatin; for Average heart rate after 1st dos.: 10-minute test at 100 W
# [6] = 1st dosage 10 mg in 20 ml of water
# [7] = Homo sapiens, 1st dosage 10 mg, 100 W, read-out: Change in the oxygen consumption after 1st dosage
# [8] = read-out: Change in the oxygen demand
# [9] = read-out: Heat production (deviation from the average of all the tests)
# [10] = 3rd dosage further 1 mg of active ingredient after sucrose
# [11] = after 1 mg of active ingredient
# [12] = 1st dosage 1 mg as dilute aqueous solution
# [13] = 3rd dosage further 1 mg of active ingredient
# [14] = 2nd dosage 1 mg, after 50 mg of opipramol, 100 W
# [15] = 2nd dosage 1 mg, after 1st dosage of 50 mg of opipramol, 100 W
structure (smiles),measurement,setting,value
Cl.Cl.OCCN1CCN(CCC=C2c3ccccc3Sc3ccc(C(F)(F)F)cc32)CC1 (mixture of isomers) [flupentixol],Oxygen demand after administration,[1],not reduced
same,Average heart rate after 1st dosage,test subject [2]; 1st dosage 0.5 mg in 20 ml of water,118.4 per minute
same,Change in the oxygen consumption after 1st dosage,"test subject [2]; 1st dosage 0.5 mg, 100 W",+32%
same,Average heart rate before,test subject [2],102.6 per minute
CN(C)CCC=C1c2ccccc2CCc2ccccc21 [amitriptyline],Oxygen demand after administration,[1],not reduced
same,Average heart rate after 1st dosage,test subject [2]; [6],119.3 per minute
same,change in vivo at 10 mg,test subject [2]; [7],71%
O=C1CN=C(c2ccccn2)c2cc(Br)ccc2N1 [bromazepam],change in vivo at 1 mg,test subject [3]; [8],0%
same,change in vivo at 1 mg,test subject [3]; [9],6%
same,Oxygen demand after administration,[1],not reduced
same,Average heart rate after 1st dosage,test subject [2]; 1st dosage 3 mg in 20 ml of water,129.3 per minute
same,change in vivo at 3 mg,"test subject [2]; Homo sapiens, 1st dosage 3 mg, 100 W, read-out: Change in the oxygen consumption after 1st dosage",23%
CCOC(=O)n1ccn(C)c1=S [carbimazole],Suitability for reducing the oxygen consumption during physical work,[1],suitable
CNC1=Nc2ccc(Cl)cc2C(c2ccccc2)=[N+]([O-])C1 [chlordiazepoxide],change in vivo at 1 mg,test subject [3]; [8],0%
same,change in vivo at 1 mg,test subject [3]; [9],14%
same,Average heart rate after 1st dosage,test subject [2]; 1st dosage 5 mg in 20 ml of water,126.4 per minute
same,change in vivo at 5 mg,"test subject [2]; Homo sapiens, 1st dosage 5 mg, 100 W, read-out: Change in the oxygen consumption after 1st dosage",29%
"CN(C)CC/C=C1/c2ccccc2Sc2ccc(Cl)cc21 [chlorprothixen, chlorprothixene]",Oxygen demand after administration,[1],not reduced
same,Average heart rate after 1st dosage,test subject [2]; [6],124.6 per minute
same,Change in the oxygen consumption after 1st dosage,"test subject [2]; 1st dosage 10 mg, 100 W",+46%
same,Average heart rate before,test subject [2],101.7 per minute
CN1CCC[C@@H]1CCO[C@](C)(c1ccccc1)c1ccc(Cl)cc1 [clemastine],Suitability for reducing the oxygen consumption during physical work,[1],suitable
CN1C(=O)CC(=O)N(c2ccccc2)c2cc(Cl)ccc21 [clobazam],change in vivo at 1 mg,test subject [3]; [8],-51%
same,change in vivo at 1 mg,test subject [3]; [9],-49%
CN(C)CCCN1c2ccccc2CCc2ccc(Cl)cc21 [clomipramine],Oxygen demand after administration,[1],not reduced
same,Average heart rate after 1st dosage,test subject [2]; 1st dosage 25 mg in 20 ml of water,134.8 per minute
same,change in vivo at 25 mg,"test subject [2]; Homo sapiens, 1st dosage 25 mg, 100 W, read-out: Change in the oxygen consumption after 1st dosage",42%
CN1CCN(C2=Nc3ccccc3Sc3ccc(Cl)cc32)CC1 [clothiapine],Average heart rate after 4th dos.,test subject [4]; 1 mg series,82.2 per minute
same,Average heart rate after 3rd dos.,test subject [4]; [10],113.9 per minute
same,Average heart rate after 2nd dos.,test subject [4]; [11],112.4 per minute
same,Change in oxygen consumption after 2nd dos.,test subject [5]; 1 mg series,+78%
same,Change in oxygen consumption after 4th dos.,test subject [5]; 1 mg series,−63%
same,Average heart rate after 1st dos.,test subject [5]; [12],73.2 per minute
same,Change in oxygen consumption after 3rd dos.,test subject [5]; [13],+3%
same,Suitability for reducing the oxygen consumption during physical work,[1],suitable
same,Change in the oxygen consumption after 2nd dosage,"test subject [2]; 2nd dosage 1 mg, after 25 mg of clomipramine, 100 W",−70%
same,Change in the oxygen consumption after 2nd dosage,test subject [2]; [14],−65%
same,Average heart rate after 2nd dosage,"test subject [2]; 2nd dosage 1 mg, after 1st dosage of 25 mg of clomipramine, 100 W",100.0 per minute
same,Average heart rate after 2nd dosage,test subject [2]; [15],88.9 per minute
CN1CCC(=C2c3ccccc3C=Cc3ccccc32)CC1 [cyproheptadine],Average heart rate after 4th dos.,test subject [4]; 0.2 mg series,83.9 per minute
same,Average heart rate after 3rd dos.,test subject [4]; 3rd dosage further 0.2 mg of active ingredient after sucrose,106.4 per minute
same,Average heart rate after 2nd dos.,test subject [4]; after 0.2 mg of active ingredient,109.1 per minute
same,Change in oxygen consumption after 2nd dos.,test subject [5]; 0.2 mg series,+69%
same,Change in oxygen consumption after 4th dos.,test subject [5]; 0.2 mg series,−45%
same,Average heart rate after 1st dos.,test subject [5]; 1st dosage 0.2 mg as dilute aqueous solution,74.7 per minute
same,Change in oxygen consumption after 3rd dos.,test subject [5]; 3rd dosage further 0.2 mg of active ingredient,−5%
same,Change in the oxygen consumption after 2nd dosage,"test subject [2]; 2nd dosage 0.2 mg, after 5 mg of chlordiazepoxide, 100 W",−76%
same,Change in the oxygen consumption after 2nd dosage,"test subject [2]; 2nd dosage 0.2 mg, after 10 mg of amitriptyline, 100 W",−63%
same,Average heart rate after 2nd dosage,"test subject [2]; 2nd dosage 0.2 mg, after 1st dosage of 5 mg of chlordiazepoxide, 100 W",88.5 per minute
same,Average heart rate after 2nd dosage,"test subject [2]; 2nd dosage 0.2 mg, after 1st dosage of 10 mg of amitriptyline, 100 W",87.6 per minute
CN(C)CCN1C(=O)c2ccccc2N(C)c2ccccc21 [dibenzepin],Average heart rate after 4th dos.,test subject [4]; 1 mg series,86.4 per minute
same,Average heart rate after 3rd dos.,test subject [4]; [10],115 per minute
same,Average heart rate after 2nd dos.,test subject [4]; [11],111.5 per minute
same,Change in oxygen consumption after 2nd dos.,test subject [5]; 1 mg series,+69%
same,Change in oxygen consumption after 4th dos.,test subject [5]; 1 mg series,−57%
same,Average heart rate after 1st dos.,test subject [5]; [12],77.2 per minute
same,Change in oxygen consumption after 3rd dos.,test subject [5]; [13],0%
same,Suitability for reducing the oxygen consumption during physical work,[1],suitable
same,Change in the oxygen consumption after 2nd dosage,test subject [2]; [14],−59%
same,Average heart rate after 2nd dosage,test subject [2]; [15],88.3 per minute
COc1ccc2c3c1O[C@H]1[C@@H](O)CC[C@H]4[C@@H](C2)N(C)CC[C@@]341 [dihydrocodeine],Suitability for reducing the oxygen consumption during physical work,[1],suitable
CN(C)CCOC(C)(c1ccccc1)c1ccccn1 (stereo not shown) [doxylamine],Oxygen demand after administration,[1],not reduced
CN1C(=O)CN=C(c2ccccc2F)c2cc([N+](=O)[O-])ccc21 [flunitrazepam],change in vivo at 1 mg,test subject [3]; [8],-39%
same,change in vivo at 1 mg,test subject [3]; [9],-40%
same,Suitability for reducing the oxygen consumption during physical work,[1],suitable
O=C1Nc2ccc(Cl)cc2C(c2ccccc2Cl)=NC1O (stereo not shown) [lorazepam],Oxygen demand after administration,[1],not reduced
same,Average heart rate after 1st dosage,test subject [2]; 1st dosage 1 mg in 20 ml of water,121.5 per minute
same,change in vivo at 1 mg,"test subject [2]; Homo sapiens, 1st dosage 1 mg, 100 W, read-out: Change in the oxygen consumption after 1st dosage",34%
CN1CC[C@]23c4c5ccc(O)c4O[C@H]2[C@@H](O)C=C[C@H]3[C@H]1C5 [morphine],Suitability for reducing the oxygen consumption during physical work,[1],suitable
O=C1CN=C(c2ccccc2)c2cc([N+](=O)[O-])ccc2N1 [nitrazepam],change in vivo at 1 mg,test subject [3]; [8],0%
same,change in vivo at 1 mg,test subject [3]; [9],7%
same,Oxygen demand after administration,[1],not reduced
same,Average heart rate after 1st dosage,test subject [2]; [6],131.4 per minute
same,change in vivo at 10 mg,test subject [2]; [7],21%
COc1ccc2c(c1OC)C(=O)O[C@@H]2[C@H]1c2c(cc3c(c2OC)OCO3)CCN1C [noscapine],Suitability for reducing the oxygen consumption during physical work,[1],suitable
OCCN1CCN(CCCN2c3ccccc3C=Cc3ccccc32)CC1 [opipramol],Oxygen demand after administration,[1],not reduced
O=C1Nc2ccc(Cl)cc2C(c2ccccc2)=NC1O (stereo not shown) [oxazepam],change in vivo at 1 mg,test subject [3]; [8],0%
same,change in vivo at 1 mg,test subject [3]; [9],7%
same,change in vivo at 7 mg,"test subject [2]; Homo sapiens, 1st dosage 7 mg, 100 W, read-out: Change in the oxygen consumption after 1st dosage",33%
CSc1ccc2c(c1)N(CCC1CCCCN1C)c1ccccc1S2 (stereo not shown) [thioridazine],Average heart rate after 4th dos.,test subject [4]; 1 mg series,86.5 per minute
same,Average heart rate after 3rd dos.,test subject [4]; [10],111.2 per minute
same,Average heart rate after 2nd dos.,test subject [4]; [11],111.0 per minute
same,Change in oxygen consumption after 2nd dos.,test subject [5]; 1 mg series,+69%
same,Change in oxygen consumption after 4th dos.,test subject [5]; 1 mg series,−49%
same,Average heart rate after 1st dos.,test subject [5]; [12],76.3 per minute
same,Change in oxygen consumption after 3rd dos.,test subject [5]; [13],0%
same,Suitability for reducing the oxygen consumption during physical work,[1],suitable
same,Change in the oxygen consumption after 2nd dosage,"test subject [2]; 2nd dosage 1 mg, after 10 mg of imipramine, 100 W",−56%
same,Average heart rate after 2nd dosage,"test subject [2]; 2nd dosage 1 mg, after 1st dosage of 10 mg of imipramine, 100 W",81.5 per minute
CN1CCN(C(=O)OC2c3nccnc3C(=O)N2c2ccc(Cl)cn2)CC1 (stereo not shown) [zopiclone],change in vivo at 1 mg,test subject [3]; [9],-44%
same,Suitability for reducing the oxygen consumption during physical work,[1],suitable

# Source: patent US6703371B1, “Preparations for reducing oxygen consumption during physical efforts” (priority 1999, dated 2004)
